Data published in patent publication US6022895A, “Substituted amino compounds and their use as substances having an analgesic effect” (priority 1997, dated 2000).
Where a name gives a salt, the structure may show the parent alone.

system: μ-receptors; test: not given; conditions: background statement; cited from earlier work

SMILES | selective binding to μ-receptors
CN1CC[C@]23c4c5ccc(O)c4O[C@H]2[C@@H](O)C=C[C@H]3[C@H]1C5 [morphine] | selectively binds to what are termed μ-receptors

biological target: T1, δ opiate receptor (Rattus norvegicus, UniProt P33533); test: δ opiate receptor binding (displacement of (3H)-2-D-ala-deltorphin II, rat brain membrane homogenate); parameters: species or system male Wistar rats; conditions: mean values ± standard deviations of ≥3 independent tests; 1 nmole/l (3H)-2-D-ala-deltorphin II; pH 7.4; 90 minutes at 37° C.; Ki from IC50 by Cheng-Prussoff equation
T1 construct: The rat brain, which was freshly prepared in each case, was homogenized; from tissue; host or cells: brain of male Wistar rats, without the cerebellum, pons and medulla oblongata (membrane homogenate)
Protocol: δ Opiate Receptor Binding Investigations
Tests to determine the affinity of the compounds of formula (I) according to the invention for the δ opiate receptor were performed on meninx homogenates (a homogenate of the brain of male Wistar rats, without the cerebellum, pons and medulla oblongata).
The rat brain, which was freshly prepared in each case, was homogenized for this purpose, while being cooled in ice, in 50 mmoles/l Tris-HCl (pH 7.4) and was centrifuged for 10 minutes at 5000 g and 4° C. After decanting and discarding the supernatant liquor, and taking up and homogenising the membrane sediment again in […] Tris-HCl (pH 7.4), the homogenate was subsequently centrifuged for 20 minutes at 20,000 g and 4° C. This washing step was repeated once more. Thereafter, the supernatant liquor was decanted, the membrane sediment was homogenized in cold 50 mmoles/l Tris-HCl, 20% glycerol (w/v), 0.01% bacitracin (w/v) (pH 7.4), and was frozen in aliquots until testing was performed. For the receptor binding tests, the aliquots were thawed and diluted 1:10 with the binding test buffer.
50 mmoles/l Tris-HCl, 5 mmoles/l MgCl2 (pH 7.4) supplemented with 0.1% (w/v) bovine serum albumin, with 1 nmole/l (^3 H)-2-D-ala-deltorphin II as the radioactive ligand, was used as the buffer in the binding test. The proportion of non-specific binding was determined in the presence of 10 μmoles/l naloxone.
In further batches, the compounds according to the invention were added in a series of concentrations and the displacement of the radioactive ligand from its specific binding was determined. The respective triple batches were incubated for 90 minutes at 37° C. and were subsequently harvested by means of filtration through glass fiber filters (GF/B) for the determination of the radioactive ligand bound to the membrane homogenate. The radioactivity of the glass fiber filter discs was measured in a β-counter after adding a scintillator.
The affinity of the compounds according to the invention for the δ opiate receptor was calculated by the mass action law, by means of non-linear regression, as the IC50 value. Ki values were calculated from the IC50 values using the Cheng-Prussoff equation. The Ki values are given as mean values ± standard deviations of ≥3 tests which were independent of each other.

T1 sequence (P33533 whole entry): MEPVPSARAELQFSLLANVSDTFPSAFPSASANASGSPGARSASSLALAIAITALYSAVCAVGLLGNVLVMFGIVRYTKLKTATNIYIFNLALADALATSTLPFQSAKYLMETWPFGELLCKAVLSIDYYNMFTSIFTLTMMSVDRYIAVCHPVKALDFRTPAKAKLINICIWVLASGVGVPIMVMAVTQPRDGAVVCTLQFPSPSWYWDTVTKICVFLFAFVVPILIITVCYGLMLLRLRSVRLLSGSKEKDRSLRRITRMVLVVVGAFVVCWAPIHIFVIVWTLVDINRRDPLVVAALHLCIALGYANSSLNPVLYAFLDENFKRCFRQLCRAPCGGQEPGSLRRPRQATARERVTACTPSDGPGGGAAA

SMILES | Ki [nM]
CN(CC1=C(c2cccc(O)c2)c2ccccc2CCC1)Cc1ccccc1 [Example 2e, 3-{6-[(benzyl-methyl-amino)-methyl]-8,9-dihydro-7H-benzocyclohepten-5-yl}-phenol hydrochloride] | 936 ± 32
CN(C)CC1=C(c2cccc(O)c2)c2cc(Oc3ccccc3)ccc2CC1 [Example 8, 3-(2-dimethylaminomethyl-7-phenoxy-3,4-dihydro-naphth-1-yl)-phenol hydrochloride] | 25.7 ± 10.2
CN(C)CC1=C(c2cccc(O)c2)c2ccccc2C1 [Example 2i, 3-(2-dimethylaminomethyl-3H-inden-1-yl)-phenol hydrochloride] | 157 ± 16
CN(CCc1ccccc1)CC1=C(c2cccc(O)c2)c2ccccc2CCC1 [Example 2d, 3-{6-[(methyl-phenethyl-amino)-methyl]-8,9-dihydro-7H-benzocyclohepten-5-yl}-phenol hydrochloride] | 54.3 ± 8.2
C/C(CN(C)C)=C(\c1ccc(-c2ccccc2)cc1)c1cccc(O)c1 [Example 11b, Z-3-(1-biphenyl-4-yl-3-dimethylamino-2-methyl-propenyl)-phenol hydrochloride] | 23.7 ± 1.7
CN(C)CC1=C(c2cccc(O)c2)c2cc(-c3ccccc3)ccc2CC1 [Example 9b, 3-(2-dimethylaminomethyl-7-phenyl-3,4-dihydronaphth-1-yl)-phenol hydrochloride] | 39.3 ± 2.2
CN(C)CC1=C(c2cccc(O)c2)c2ccc3ccccc3c2CC1 [Example 2j, 3-(2-dimethylaminomethyl-3,4-dihydro-phenanthren-1-yl)-phendlydrochloride] | 80.8 ± 29.7
C=CCN(C)CC1=C(c2cccc(O)c2)c2ccccc2CCC1 [Example 10, 3-{6-[allyl-methyl-amino)-methyl]-8,9-dihydro-7H-benzocyclohepten-5-yl}-phenol hydrochloride] | 679 ± 214
CCCCc1ccc2c(c1)C(c1cccc(O)c1)=C(CN(C)C)CC2 [Example 9c, 3-(7-n-butyl-2-dimethylaminomethyl-3,4-dihydronaphth-1-yl)-phenol hydrochloride] | 42.2 ± 16
CN(C)CC1=C(c2cccc(O)c2)c2ccc(O)cc2CC1 [Example 6, 6-dimethylaminomethyl-5-(3-hydroxy-phenyl)-7,8-dihydro-naphth-2-ol hydrochloride] | 40.9 ± 6.7
COc1cccc2c1CCC(CN(C)C)=C2c1ccccc1 [Example 4, (5-methoxy-1-phenyl-3,4-dihydro-naphth-2-ylmethyl)-dimethylamine hydrochloride] | 517 ± 45
CCCN(CCC)CC1=C(c2cccc(O)c2)c2ccccc2CCC1 [Example 2c, 3-(6-di-n-propylaminomethyl-8,9-dihydro-7H-benzocyclohepten-5-yl)-phenol h ydrochloride] | 294 ± 106
COc1cccc2c1CCC(CN(C)C)=C2c1cccc(O)c1 [Example 9a, 3-(2-dimethylaminomethyl-5-methoxy-3,4-dihydronaphth-1-yl)-phenol hydrochloride] | 23.9 ± 0.9
CN(C)CC1=C(c2cccc(O)c2)c2ccccc2CCC1 [Example 2a, 3-(6-dimethylaminomethyl-8,9-dihydro-7H-benzo-cyclohepten-5-yl)-phenol hydrochloride] | 17.2 ± 4.3
CN(C)CC1=C(c2cccc(O)c2)c2ccccc2CCCC1 [Example 2f, 3-(6-dimethylaminomethyl-7,8,9,10-tetrahydrobenzocycloocten-5-yl)-phenol h ydrochloride] | 46.3 ± 10.1
CCN(CC)CC1=C(c2cccc(O)c2)c2ccccc2CCC1 [Example 2b, 3-(6-diethylaminomethyl-8,9-dihydro-7H-benzocyclohepten-5-yl)-phenol hydrochloride] | 728 ± 146
CC(CN(C)C)=C(c1cccc(O)c1)c1cccc(O)c1 [Example 11a, 3-[3-dimethylamino-1-(3-hydroxyphenyl)-2-methyl-propenyl]-phenol hydrochloride] | 34 ± 5.8
CN(CC1=C(c2cccc(O)c2)c2ccccc2CCC1)CC1CC1 [Example 2g, 3-{6-[(cyclopropylmethyl-methyl-amino)-methyl]-8,9-dihydro-7H-benzocyclohepten-5-yl}-phenol hydrochloride] | 182 ± 12
CN(C)CC1=C(c2cccc(O)c2)c2ccccc2CC1 [Example 1, 3-(2-dimethylaminomethyl-3,4-dihydro-naphth-1-yl)-phenol hydrochloride] | 55.8 ± 4.6
CN(CCc1ccccn1)CC1=C(c2cccc(O)c2)c2ccccc2CCC1 [Example 2h, 3-(6-{[methyl-(2-pyridin-2-yl-ethyl)-amino]-methyl)-8,9-dihydro-7H-benzocyclohepten-5-yl)-phenol dihydrochloride] | 223 ± 86
COc1ccc2c(c1)CCC(CN(C)C)=C2c1ccccc1 [Example 3, (6-methoxy-1-phenyl-3,4-dihydro-naphth-2-ylmethyl)-dimethylamine hydrochloride] | 456 ± 62
